Measurements: US12251407B2, “Use of Megamonas funiformis in preventing and/or treating metabolic diseases” (BGI SHENZHEN, priority 2018, dated 2025)
Marks after values point to notes of the source that are not given here.

Legend:
[1] = test system: AF24-28AC; experiment: Antibiotic sensitivity of AF24-28AC, drug sensitive paper method; format: cell-based, Megamonas funiformis; conditions: for Diameter of inhibition zone: antibiotic susceptibility papers on AF24-28AC plates, 37° C., 48 hours; for Sensitivity of AF24-28AC to the antibiotic (resistant / sensitive): drug sensitive paper method
Protocol: The sensitivity of AF24-28AC to 20 common antibiotics was tested by the drug sensitive paper method. 100 μl of AF24-28AC bacterial solution cultured to the logarithmic phase was spread plated. Antibiotic susceptibility papers (purchased from Hangzhou Microbial Reagent Co. LTD) were affixed on the medium surface of plates, cultured at 37° C. for 48 hours, after which the size of inhibition zone was measured.

[2] = test system: T2D mice model; experiment: T2D animal model, fasting blood glucose; format: in vivo, C57bL/6 mice; conditions: tail vein blood
Protocol: (§1) The T2D animal model is constructed by using C57bL/6 mice (purchased from Guangdong Medical Experimental Animal Center) at 8 weeks old and 20±2 g of body weight. The mice are housed in a specific pathogen free (SPF) environment and adaptively fed for 1 week, followed by grouping and modeling. The T2D animal model is induced by injection of streptozotocin (STZ) along with feeding high-fat feed, and the mice having a fasting blood glucose (FBG) reaching 10 mM/L can be used as a T2D mice model. Fifty mice selected for experiments are randomly divided into 5 groups. • Model group: the T2D mice model was administered with saline solution by gavage; • Bacterial agent group 1: the T2D mice model was administered with the DSM 19343 bacterial solution (1×10^8 cfu/m1) by gavage; • Bacterial agent group 2: the T2D mice model was administered with the AF24-28AC bacterial solution (1×10^8 cfu/m1) by gavage; • Bacterial agent group 3: the T2D mice model was administered with the JCM 14723 bacterial solution (1×10^8 cfu/m1) by gavage; • Metformin treatment group: the T2D mice model was treated with the positive drug metformin.
(§2) The experiment was carried out based on the different groups. After the construction of T2D mice model (i.e., FBG>10), the treatment was started and lasted for 2 months. The food intake amount and body weight of mice were recorded daily. Blood of mice was collected from the tail vein every week for detection of fasting blood glucose. The oral glucose tolerance test (OGTT) of mice was measured at week 4 of treatment and at the end of the experiment.

[3] = test system: T2D mice model; experiment: T2D animal model, oral glucose tolerance test (OGTT); format: in vivo, C57bL/6 mice
Protocol: as §1, §2

[4] = test system: T2D mice model; experiment: T2D animal model (STZ plus high-fat feed), body weight; format: in vivo, C57bL/6 mice; conditions: gavage
Protocol: as §1, §2

Molecule | Diameter of inhibition zone [1] [cm] | further results
NCC[C@H](O)C(=O)N[C@@H]1C[C@H](N)[C@@H](O[C@H]2O[C@H](CN)[C@@H](O)[C@H](O)[C@H]2O)[C@H](O)[C@H]1O[C@H]1O[C@H](CO)[C@@H](O)[C@H](N)[C@H]1O [Amikacin] | 2.6 | 
CC1(C)S[C@@H]2[C@H](NC(=O)[C@H](N)c3ccccc3)C(=O)N2[C@H]1C(=O)O [Ampicillin] | 1.0 | 
CC1(C)S[C@@H]2[C@H](NC(=O)C(C(=O)O)c3ccccc3)C(=O)N2[C@H]1C(=O)O (some centres unmarked) [Carbenicillin] | 1.2 | 
CC1=C(C(=O)O)N2C(=O)[C@@H](NC(=O)[C@H](N)c3ccccc3)[C@H]2SC1 [Cefalexin] | 2.2 | 
Cc1nnc(SCC2=C(C(=O)O)N3C(=O)[C@@H](NC(=O)Cn4cnnn4)[C@H]3SC2)s1 [Cefazolin] | 4.0 | 
CCN1CCN(C(=O)N[C@@H](C(=O)N[C@@H]2C(=O)N3C(C(=O)O)=C(CSc4nnnn4C)CS[C@H]23)c2ccc(O)cc2)C(=O)C1=O [Cefoperazone] | 0.0 | Sensitivity of AF24-28AC to the antibiotic (resistant / sensitive) [1]: resistant
CC1=C(C(=O)O)N2C(=O)[C@@H](NC(=O)[C@H](N)C3=CCC=CC3)[C@H]2SC1 [Cefradine] | 0.8 | 
CO/N=C(\C(=O)N[C@@H]1C(=O)N2C(C(=O)O)=C(CSc3nc(=O)c(=O)[nH]n3C)CS[C@H]12)c1csc(N)n1 [Ceftriaxone Sodium] | 1.0 | 
CO/N=C(\C(=O)N[C@@H]1C(=O)N2C(C(=O)O)=C(COC(N)=O)CS[C@H]12)c1ccco1 [Cefuroxime] | 3.8 | 
C[C@H]1c2cccc(O)c2C(=O)C2=C(O)[C@]3(O)C(=O)C(C(N)=O)=C(O)[C@@H](N(C)C)[C@@H]3[C@@H](O)[C@@H]21 [Doxycycline] | 4.0 | 
CC[C@H]1OC(=O)[C@H](C)[C@@H](O[C@H]2C[C@@](C)(OC)[C@@H](O)[C@H](C)O2)[C@H](C)[C@@H](O[C@@H]2O[C@H](C)C[C@H](N(C)C)[C@H]2O)[C@](C)(O)C[C@@H](C)C(=O)[C@H](C)[C@@H](O)[C@]1(C)O [Erythromycin] | 1.3 | 
CC(C)(O/N=C(\C(=O)N[C@@H]1C(=O)N2C(C(=O)[O-])=C(C[n+]3ccccc3)CS[C@H]12)c1csc(N)n1)C(=O)O [Fortum (Ceftazidime), Ceftazidime] | 2.0 | 
NC[C@H]1O[C@H](O[C@H]2[C@H](O)[C@@H](O[C@H]3O[C@H](CO)[C@@H](O)[C@H](N)[C@H]3O)[C@H](N)C[C@@H]2N)[C@H](O)[C@@H](O)[C@@H]1O [Kanamycin] | 1.8 | 
CN(C)C(=N)N=C(N)N [Metformin, metformin] |  | Fasting blood glucose Week 1 ([2]; Week 1): 16.9 mmol/L; Fasting blood glucose Week 3 ([2]; Week 3): 16.0 mmol/L; Fasting blood glucose Week 5 ([2]; Week 5): 14.3 mmol/L; Fasting blood glucose Week 7 ([2]; Week 7): 11.6* mmol/L; Fasting blood glucose Week 9 ([2]; Week 9): 10.3** mmol/L; Glucose tolerance (OGTT) blood glucose 0 minute ([3]; 0 minute after glucose by gavage): 9.3 mmol/L; Glucose tolerance (OGTT) blood glucose 30 minutes ([3]; 30 minutes after glucose by gavage): 19.4 mmol/L; Glucose tolerance (OGTT) blood glucose 60 minutes ([3]; 60 minutes after glucose by gavage): 16.6 mmol/L; Glucose tolerance (OGTT) blood glucose 90 minutes ([3]; 90 minutes after glucose by gavage): 11.7* mmol/L; Glucose tolerance (OGTT) blood glucose 120 minutes ([3]; 120 minutes after glucose by gavage): 10.4 mmol/L; Weight change Week 1 ([4]; Week 1): 20.33 g; Weight change Week 3 ([4]; Week 3): 22.36 g; Weight change Week 5 ([4]; Week 5): 24.33 g; Weight change Week 7 ([4]; Week 7): 25.86 g; Weight change Week 9 ([4]; Week 9, *P<0.05 relative to model group): 26.53* g
CN(C)c1ccc(O)c2c1C[C@H]1C[C@H]3[C@H](N(C)C)C(O)=C(C(N)=O)C(=O)[C@@]3(O)C(O)=C1C2=O [Minocin (Minocycline), Minocycline] | 4.0 | 
Cc1onc(-c2ccccc2)c1C(=O)N[C@@H]1C(=O)N2[C@@H]1SC(C)(C)[C@@H]2C(=O)O [Oxacillin] | 0.0 | Sensitivity of AF24-28AC to the antibiotic (resistant / sensitive) [1]: resistant
CCN1CCN(C(=O)N[C@@H](C(=O)N[C@@H]2C(=O)N3[C@@H]2SC(C)(C)[C@@H]3C(=O)O)c2ccccc2)C(=O)C1=O [Piperacillin] | 1.2 | 
CN(C)[C@@H]1C(O)=C(C(N)=O)C(=O)[C@@]2(O)C(O)=C3C(=O)c4c(O)cccc4[C@@](C)(O)[C@H]3C[C@@H]12 [Tetracycline] | 4.2 | 
Gentamicin | 1.7 | 
Neomycin | 1.3 | 
Penicillin | 0.0 | Sensitivity of AF24-28AC to the antibiotic (resistant / sensitive) [1]: resistant
